Results from US20240025887A1, “THIENYL AND CYCLOALKYL AMINOPYRIMIDINE COMPOUNDS AS INHIBITORS OF NUAK KINASES, COMPOSITIONS AND USES THEREOF” (Ontario Institute for Cancer Research (OICR), priority 2021, published 2024).

Experiments:
NUAK2 (h) = target: T1, NUAK2 (h) (Homo sapiens, UniProt Q9H093); assay: NUAK2 enzymatic assay (radiometric, Eurofins); format: biochemical
T1 construct: This assay was done radiometrically using full-length, recombinant enzyme; purchased Eurofins
T1 sequence (Q9H093 1-628): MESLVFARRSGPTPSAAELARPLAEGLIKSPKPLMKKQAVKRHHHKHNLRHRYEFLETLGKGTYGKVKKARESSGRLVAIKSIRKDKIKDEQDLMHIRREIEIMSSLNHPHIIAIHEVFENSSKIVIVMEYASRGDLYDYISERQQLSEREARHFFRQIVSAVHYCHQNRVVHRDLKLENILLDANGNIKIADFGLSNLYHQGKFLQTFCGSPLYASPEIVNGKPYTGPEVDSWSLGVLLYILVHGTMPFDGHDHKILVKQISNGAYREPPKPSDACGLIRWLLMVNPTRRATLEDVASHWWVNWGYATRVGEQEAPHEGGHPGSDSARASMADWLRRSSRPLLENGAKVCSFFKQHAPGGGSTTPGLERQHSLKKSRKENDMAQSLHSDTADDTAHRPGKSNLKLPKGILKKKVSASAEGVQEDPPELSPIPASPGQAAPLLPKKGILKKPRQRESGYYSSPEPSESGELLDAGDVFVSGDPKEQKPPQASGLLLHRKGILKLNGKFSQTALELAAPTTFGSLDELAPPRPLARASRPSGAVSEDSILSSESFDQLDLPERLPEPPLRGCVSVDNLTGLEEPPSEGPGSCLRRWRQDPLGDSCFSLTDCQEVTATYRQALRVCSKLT
Outline: (§1)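 Radiometric assay with full-length recombinant NUAK2 in 8 mM MOPS pH 7.0, 0.2 mM EDTA, 10 mM magnesium acetate, 300 μM peptide substrate and [33P]-ATP, 40 min at room temperature. Phosphoric acid stop, filter capture, scintillation counting. Aurora A and NUAK1 used as counter screens.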

NUAK1 = target: T2, NUAK1 (Homo sapiens, UniProt O60285); assay: NUAK1 counter screen; format: biochemical
T2 sequence (O60285 1-661): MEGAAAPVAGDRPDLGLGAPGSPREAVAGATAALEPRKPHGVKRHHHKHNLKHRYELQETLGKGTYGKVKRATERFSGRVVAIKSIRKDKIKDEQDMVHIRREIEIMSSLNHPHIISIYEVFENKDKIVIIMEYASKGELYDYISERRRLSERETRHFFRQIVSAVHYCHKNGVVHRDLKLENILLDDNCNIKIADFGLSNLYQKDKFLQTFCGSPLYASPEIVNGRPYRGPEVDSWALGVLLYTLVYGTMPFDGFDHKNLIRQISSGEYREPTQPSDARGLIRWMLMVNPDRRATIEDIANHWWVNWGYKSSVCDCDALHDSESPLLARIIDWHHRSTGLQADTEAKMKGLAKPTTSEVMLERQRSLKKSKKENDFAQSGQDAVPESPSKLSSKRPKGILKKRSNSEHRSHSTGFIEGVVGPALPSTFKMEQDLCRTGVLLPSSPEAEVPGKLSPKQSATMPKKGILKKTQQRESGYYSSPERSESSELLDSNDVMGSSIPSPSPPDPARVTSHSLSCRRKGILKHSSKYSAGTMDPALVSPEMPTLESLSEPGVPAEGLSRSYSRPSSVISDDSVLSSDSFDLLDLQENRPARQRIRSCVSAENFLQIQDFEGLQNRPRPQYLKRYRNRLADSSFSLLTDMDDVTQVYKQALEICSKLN
Outline: as §1

Aurora A = target: T3, Aurora A (Homo sapiens, UniProt O14965); assay: Aurora A counter screen; format: biochemical; conditions: read-out: AUR-A (IC50)
T3 sequence (O14965 1-403): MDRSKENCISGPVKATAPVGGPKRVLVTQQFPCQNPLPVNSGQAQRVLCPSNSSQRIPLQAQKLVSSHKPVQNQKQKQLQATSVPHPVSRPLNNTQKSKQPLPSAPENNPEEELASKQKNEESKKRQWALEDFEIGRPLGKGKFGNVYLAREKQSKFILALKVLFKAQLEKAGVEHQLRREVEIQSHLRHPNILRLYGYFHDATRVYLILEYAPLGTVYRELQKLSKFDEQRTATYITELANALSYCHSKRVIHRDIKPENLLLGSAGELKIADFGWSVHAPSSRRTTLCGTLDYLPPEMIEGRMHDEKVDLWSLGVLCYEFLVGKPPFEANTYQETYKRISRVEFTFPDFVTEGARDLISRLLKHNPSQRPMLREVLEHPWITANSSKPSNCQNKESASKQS
Outline: as §1

[1] = test system: YAP/TAZ nuclear localization in Clover-YAP expressing MDA-MB-231 cells; assay: Cell-based YAP/TAZ localization assay; conditions: Clover-YAP MDA-MB-231 cells, live imaging every 10 min for 2 h, FIG. 1
Experimental: Compounds of the application were tested for their ability to inhibit localization of YAP/TAZ to the nucleus of cells using an assay generally described in Nature Communications, 2018, 9:3510. Live cell imaging of Clover-YAP expressing MDA-MB-231 cells was carried out using a custom WAVE-FX-X1 spinning disc confocal system (Quorum Technologies) with a modified Yokogawa CSU-X1 scanhead on an AxioObserver Z1 inverted microscope (Carl Zeiss) with a x40 NA 1.2 Plan Apochromat (Carl Zeiss) objective. Cells were plated in a 35 mm glass-bottom dish (Mat-Tek, P35G-1.5-14-C) and were maintained in a stage-top incubator at 37° C. and 5% CO2 during imaging. Cells were cultured in phenol-red free RPMI medium (Thermo Fisher Scientific, 11835030) with 5% FBS and 200 nM SiR-DNA (Spirochrom, S0007) was added 1 h prior to imaging to visualize the nuclei. Localization of Clover-YAP was monitored every 10 min for 2 h. Volocity software was used for image acquisition and processing.

[2] = test system: pSer445 MYPT1 in MDA-MB-231 cells; assay: Cell-based phospho-MYPT1 assay; conditions: 500 nM, 1 hour, immunoblot, FIG. 2
Experimental: Compounds with sufficient activity in the biochemical NUAK assay were evaluated in a cell-based assay to confirm their targeted activity. To allow direct assessment of target engagement by NUAK2 inhibitors in cells, an antibody to MYPT1, a NUAK2 substrate, which specifically recognizes the phosphorylated Ser445 epitope in endogenous MYPT1 protein was utilized (Biochem J. 2014 457 (Pt 1): 215-225; Biochem J. 201 461 (Pt 2): 233-245).
MDA-MB-231 cells were incubated in the absence (DMSO) or presence of Compound I-1 (500 nM) for 1 hour. Cell were lysed at 4° C. for 30 mins in RIPA buffer (50 mM tris-HCL, 150 mM NaCl, 1 mM EDTA, 0.1% SDS, 1% NP-40, 0.5% Sodium deoxycholate) containing protease and phosphatase inhibitors. Samples were separated by sodium dodecyl sulfate-polyacrylamide gel electrophoresis (SDS-PAGE), transferred to nitrocellulose and immunoblotted for the detection of pSer^445MYPT1 or ACTIN.

MDA-MB-231 cells = assay: Tumor cell growth inhibition assay (ATPlite); format: cell-based; conditions: Homo sapiens, 120 h, MDA-MB-231 breast tumor cell line, 5 days
Experimental: MDA-MB-231 cells were seeded into a 384-well plate at 1,000 cells/well in 50 μl medium (Alpha-MEM containing 10% FBS, […] Normocin, Invivogen and […] Gentamycin, Invitrogen). Plates were then incubated overnight for the cells to attach. An HP D300 digital dispenser was used to dose cells with DMSO or test compounds across a 16-point range of concentrations (high dose of 10 uM to low dose of 5 nM). Plates were incubated in a humidified 5% CO2 incubator at 37° C. After 5 days, plates were removed from the incubator and equilibrated to room temperature. An equal volume of ATPlite assay reagent was then added to each well, and samples processed according to manufacturer's instructions (Perkin Elmer). Luminescent signals were then measured using an Envision plate reader equipped with a US-Luminescence detector.

AUR-A (IC50, nM)/NUAK2 (IC50, nM) (NUAK2 (h); NUAK2 selectivity over Aurora-A, ratio of IC50s): 40
IC50 (NUAK2 (h); radiometric, full-length recombinant enzyme): 0.1 to 10 nM
IC50 (NUAK1): 11 to 100 nM
IC50 (Aurora A): 101 to 1000 nM
IC50 (MDA-MB-231 cells): 195 nM
Structure (SMILES): CN1CCN(c2ccc(Nc3ncc(Cl)c(Nc4ccsc4C(N)=O)n3)c(OC(F)F)c2)CC1 [Compound I-1, 3-((5-chloro-2-((2-(difluoromethoxy)-4-(4-methylpiperazin-1-yl)phenyl)amino)pyrimidin-4-yl)amino)thiophene-2-carboxamide]
inhibition of YAP/TAZ nuclear localization [1]: significant improvement in inhibition of YAP/TAZ nuclear localization
formation of cellular p-MYPT1 (pSer445) [2]: inhibits the formation of cellular p-MYPT1
